Laboratory results: the METLIN SMRT retention time set (Domingo-Almenara et al. 2019)

Assay: gradient 5% acetonitrile 3 min, to 50% in 2 min, to 85% in 15 min, held 3 min, 100 µL/min
Details: column: Zorbax Extend-C18 2.1 x 50 mm; eluents: water / acetonitrile, 0.1% formic acid
In short: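 Using water and acetonitrile that each contained 0.1% formic acid, mixtures of ~100 pure standards were separated at 100 μL/min on a Zorbax Extend-C18 column (2.1 × 50 mm, 1.8 μm). The HPLC fed a quadrupole time-of-flight mass spectrometer working in positive and negative ionization mode, with dead and dwell volumes of 40 μL and 900 μL. Data were acquired over 3 months. Retention time was read from computationally picked adduct peaks after manual inspection of each.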

| SMILES | RP-LC retention time |
| --- | --- |
| COCc1cc2nn(CC(=O)Nc3ccc(C)cc3)c(=O)n2c(-c2ccccc2)n1 | 838 s |
| O=C(CSc1nc(-c2ccccc2)ns1)OCc1ccccc1 | 1160 s |
| O=C(Cc1cccs1)N1CCC2(CC1)N=C(c1ccc(Cl)cc1)NO2 | 859 s |
| Cc1cc(C)cc(NC(=O)C(=O)NCC(c2ccc3c(c2)CCCN3C)N2CCOCC2)c1 (stereo not drawn) | 601 s |
| CCOCc1nc(C2CCCN(C(=O)NC3CCCC3)C2)no1 (stereo not drawn) | 766 s |
| CC(C)OCCCNC(=O)C1CCCCC(=O)N1 (stereo not drawn) | 617 s |
| COc1ccc(CNC(=O)C2CCCN(c3nnc4ccc(Cl)cn34)C2)c(OC)c1 (stereo not drawn) | 753 s |
| O=C(O)c1nnn(-c2ccc3c(c2)OCCO3)c1-c1ccccn1 | 640 s |
| Nc1ncnc(NCc2ccco2)c1[N+](=O)[O-] | 643 s |
| CCNC(=O)N1CCCN(S(C)(=O)=O)CC1 | 566 s |
| CCOC(=O)c1sc(NC(=O)c2cn(CC)c3nc(C)ccc3c2=O)nc1C | 1040 s |
| O=C(NCc1csc(C2CCCN(C(=O)c3cc(F)cc(F)c3)C2)n1)C1CCC1 (stereo not drawn) | 771 s |
| Cc1cc(C)cc(NC(=O)CN2C(=O)CCc3cc(S(=O)(=O)N4CCCCC4C)ccc32)c1 (stereo not drawn) | 930 s |
| Cc1nc2nc(-c3ccc(Cl)cc3)nn2c(C)c1CC(=O)N1CCCC1 | 780 s |
| Cc1ccc(NC(=O)N2CCC(OC3CCN(S(C)(=O)=O)CC3)CC2)cc1Cl | 867 s |
| c1cncc(-c2nc(-c3ccc(OC4CN(Cc5ccsc5)C4)cc3)no2)c1 | 693 s |
| CCOc1ccc(NC(=O)N2CCCC(Cn3cnc4cccnc43)C2)cc1 (stereo not drawn) | 640 s |
| Cc1cccc(OCc2nc(CCN(C)C(=O)NCc3ccco3)no2)c1 | 844 s |
| O=C(C1=CN(c2ccc(Br)cc2)c2cc(Cl)ccc2S1(=O)=O)N1CCOCC1 | 924 s |
| O=C(Nc1cccc(Cl)c1)N1CCC(n2cnc3cc(F)ccc3c2=O)CC1 | 858 s |
| CC(Oc1cccc(Cl)c1)C(=O)Nc1ccc2c(c1)Sc1ncccc1C(=O)N2C (stereo not drawn) | 911 s |
| COc1ccc(C(=O)Nc2nccnc2C(=O)NCc2ccc(Br)cc2)cc1 | 1010 s |

| SMILES | RP-LC retention time |
| --- | --- |
| O=S(=O)(c1ccccc1)N1CCCCC1c1nc(-c2ccccc2)n[nH]1 (stereo not drawn) | 851 s |
| Cc1sc(NC(=O)Cc2csc(-c3ccccc3)n2)nc1-c1cccc(Cl)c1 | 1270 s |
| Cc1cc2nn(CC(=O)Nc3ccc(F)cc3F)c(=O)n2c(Nc2ccc(C)c(F)c2)n1 | 1080 s |
| CN(C)S(=O)(=O)N1CCC(n2c(Cc3ccccc3)nn(C)c2=O)CC1 | 748 s |
| COc1ccc(-c2ncc(C(=O)Nc3ccc(OC)cc3OC)c(-c3ccncc3)n2)cc1 | 839 s |
| Cc1nc2ccc(Cl)cn2c(=O)c1NC(=O)Cc1ccc(-c2ccccc2)cc1 | 775 s |
| O=C(NCc1ccc2c(c1)CCCN2C(=O)C1CCC1)c1ccc(C(F)(F)F)cc1 | 990 s |
| Cc1cc(C2CCCN2C(=O)Cc2cccc(Cl)c2)no1 (stereo not drawn) | 816 s |
| CSc1ccccc1C(=O)N1CCC(C(=O)NCc2nc(C)no2)CC1 | 628 s |
| O=C(CC1=CCCCC1)N1CC(F)(F)C[C@H]1c1nc(C2CC2)no1 | 1000 s |
| CCc1nc(-c2csc(S(=O)(=O)N3CCC(C(=O)Nc4ccccc4)CC3)c2)no1 | 952 s |
| Cc1ccc(Nc2c(-c3cc(Br)ccc3F)nc3ccc(Cl)cn23)cc1 | 1080 s |
| O=C(Cn1nc2c(N3CCSCC3)nccn2c1=O)Nc1ccc2c(c1)OCCO2 | 737 s |
| Cc1ccnc(N2CCC(C(=O)NCCCN3CCCC3=O)CC2)n1 | 579 s |
| COc1cc(NC(=O)Cn2cnc3nc(N4CCCC4)ncc3c2=O)cc(OC)c1 | 703 s |
| CCc1ccc(-c2csc(Nc3ccc(S(=O)(=O)Nc4nc(C)cc(C)n4)cc3)n2)cc1 | 1040 s |
| Cc1cc(S(=O)(=O)N2CCCC2c2nc(-c3ccc(Cl)cc3)no2)ccc1F (stereo not drawn) | 1240 s |
| CSc1ncccc1C(=O)N1CCCC1c1nc(-c2ccc(F)cc2F)no1 (stereo not drawn) | 907 s |
| Cc1ccc(-c2csc(NC(=O)CSc3nnc(-c4cc5ccccc5o4)n3C)n2)cc1 | 1050 s |
| CCOc1ccc(C(=O)Nc2cnn(-c3ncncc3N3CCC(C)CC3)c2)cc1 | 929 s |
| Cc1ccc(CNC(=O)C2Cn3cccc3C(=O)N2)o1 (stereo not drawn) | 633 s |
| CC(C)OC(=O)COC(=O)c1cn(-c2cccc(Cl)c2)c(=O)c2ccccc12 | 1140 s |

| SMILES | RP-LC retention time |
| --- | --- |
| O=C(c1ccc(Br)o1)N1CCN(c2nc3ccccc3nc2C(F)(F)F)CC1 | 1140 s |
| Cc1c(-c2noc(C(=O)NCCN3CCCC3)n2)oc2c(C)cccc12 | 668 s |
| CCN(CC)c1ccc(NC(=O)c2cccs2)cc1C(=O)O | 626 s |
| CCN1C(=O)c2cc(S(=O)(=O)Nc3ccccc3)ccc2Oc2cccnc21 | 959 s |
| Cc1ccccc1Nc1c(-c2cccc(Cl)c2)nc2cccc(C)n12 | 802 s |
| CC(=O)N1CCc2cc(N3CC(C(=O)NCc4ccccc4Cl)CC3=O)ccc21 (stereo not drawn) | 708 s |
| O=C(Nc1c(F)cccc1F)N1CCc2[nH]cnc2C1c1ccccn1 (stereo not drawn) | 582 s |
| CC(C)CN(Cc1ccc(F)cc1)Cc1cc(=O)n2cc(Cl)ccc2n1 | 706 s |
| COc1ccc(NC(=O)CCc2c(C)nn(-c3cc(N(C)C)ncn3)c2C)c(OC)c1 | 776 s |
| CC(=O)N1CCc2nn(CC(=O)Nc3ccc(F)c(F)c3)c(=O)cc2C1 | 644 s |
| Cc1cc(C)c2nc(C)cc(C(=O)NC(C)C)c2c1 | 650 s |
| Cc1ccc(-c2noc(Cn3c(=O)n(Cc4ccco4)c(=O)c4ccccc43)n2)cc1 | 1110 s |
| CC(C)(C)c1noc(-c2cccn3c(CC(=O)NC4CCCCC4)nnc23)n1 | 754 s |
| O=C(Nc1cc(F)ccc1Cl)c1ccc2c(c1)nnn2CCN1CCOCC1 | 633 s |
| CCn1nccc1-c1cccc(-c2noc(-c3c(F)cccc3F)n2)c1 | 1270 s |
| COc1ccc(-n2nnc(-c3nsc(Nc4ccc(OC)c(Cl)c4)n3)c2C)cc1 | 1010 s |
| Cn1c(=O)n(C)c2cc(Nc3cc(N4CCOCC4)ncn3)ccc21 | 566 s |
| CCCc1ccc(-c2cc(C(=O)N3CCN(c4ncccn4)CC3)c3ccccc3n2)cc1 | 1180 s |
| CCNC(=O)C1CCN(c2nc3ccc(-c4cccs4)nc3s2)CC1 | 815 s |
| Cn1c(=O)c(N2CCN(C(=O)Cc3ccc(Br)cc3)CC2)nc2cccnc21 | 938 s |
| O=C(NCc1ccc(F)cc1)Nc1c(-c2ccc(F)cc2)nc2ccccn12 | 663 s |
| CCCN1C(=O)c2cc(C(=O)NCCc3ccccc3)nn2CC1(C)C(=O)NC1CCCC1 (stereo not drawn) | 864 s |

| SMILES | RP-LC retention time |
| --- | --- |
| O=C(N1CCC(NS(=O)(=O)Cc2ccccc2)CC1)N1C[C@H]2C[C@H](C1)[C@H]1CCCC(=O)N1C2 | 649 s |
| Cc1nc(-c2cn(C)c3ncccc23)sc1C(=O)NCc1ccccc1F | 874 s |
| COC[C@@H]1CN(S(=O)(=O)c2cn(C)cn2)C[C@H]1c1ccccn1 | 567 s |
| CS(=O)(=O)c1ccc(C(=O)Nc2ccc(Cl)c(-c3ccccn3)c2)c(Cl)c1 | 891 s |
| CCc1ccc(CNC(=O)C2CCCN(c3ccc(=O)n(-c4ccc(OC)cc4)n3)C2)cc1 (stereo not drawn) | 871 s |
| COc1ccc(NC(=O)N2CCN(c3nc4ccccc4n3C)CC2)c(OC)c1 | 609 s |
| O=C(COc1ccccc1Br)Nc1nc(-c2ccccc2)cs1 | 1130 s |
| Cc1ccc(Cn2cc(-c3noc(-c4ccc5c(c4)OCO5)n3)nn2)cc1 | 1020 s |
| CCn1cc(C(=O)Nc2ccc(F)cc2)c(S(=O)(=O)N2CCSCC2)n1 | 976 s |
| CCCn1ccc2sc(C)c(C(=O)NC3CCCC3)c2c1=O | 760 s |
| N#Cc1cccc(C(=O)N2CCC(c3cc(N)on3)CC2)c1 | 641 s |
| O=C(Nc1ccc(N2CCCN(C(=O)C3CC3)CC2)cc1)c1cncc(Br)c1 | 701 s |
| CCN1c2ccc(C)cc2C(=O)NC12CCN(C(=O)c1ccc(OC)cc1OC)CC2 | 774 s |
| O=C(N[C@H]1C[C@@H]2C[C@H]1N(C(=O)c1ccccc1C(F)(F)F)C2)c1ccccc1 | 778 s |
| CCNC(=O)N1CC(n2cc(C(=O)N(C)CCCc3c(C)nn(C)c3C)nn2)C1 | 569 s |
| O=C(NCC1CCOCC1)c1ccc(Br)cc1 | 708 s |
| Cc1ccc(-n2cc3c(N4CCCC(C(=O)NCCC5=CCCCC5)C4)ncnc3n2)cc1 (stereo not drawn) | 792 s |
| Cc1ccc(N2C(=O)C3N=NN(c4ccccc4)C3C2=O)cc1C (stereo not drawn) | 1010 s |
| O=C(NC1CCCCCC1)c1nc(-c2ccnc(N3CCCC3)c2)no1 | 709 s |
| O=C(CSc1ncnc2c1cnn2-c1ccccc1)Nc1ccc(OC(F)(F)F)cc1 | 1160 s |
| COCCC(=O)NC1CCN(C2=NS(=O)(=O)C(c3ccc(C)cc3)=C2C)CC1 | 708 s |
| Cc1ccccc1CNC(=O)C1CCCN1S(=O)(=O)c1cc2c(cc1C)NC(=O)CO2 (stereo not drawn) | 732 s |
